Data published in patent US8288363B2, “Medicaments for anti-herpes virus treatments” (ASE & BIO, priority 2006, dated 2012).

Tests used:
HSV-2 = assay: Action on the viral adsorption (treatments A, B, C); type: cell-based, herpes simplex virus 2; details: treatment C (present during and after infection), 72 hours
Procedure: (§1) To determine whether PS3 has an effect on the viral adsorption, the procedure was as follows.
(§2) Vero cells were seeded at a cell density of 3.5·10^4 cells/well of a 96-well microtitre plate in 100 μl of MEM medium containing 8% FCS 24 hours before the test. The viral suspensions of HSV-1, HSV-1R, HSV-2 and HSV-2R, defined by an MOI of 0.01 ID50/cell for a cell concentration of 350,000 cells/ml, were tested.
(§3) On the day of the test, the cells were subjected to three different treatments designated A, B and C.
(§4) According to treatment A, cells treated with 50 μl of PS3 or comparison product (acyclovir) of a given concentration were infected with 50 μl of one of the viral suspensions identified above for one hour at 4° C.
(§5) The infected cells were then washed with 100 μl of saline buffer in order to remove the PS3 or the reference product as well as the viral particles which had not been adsorbed by the cells.
(§6) After having filled each well with sufficient MEM medium containing 8% FCS to arrive at a volume of 200 μl, the cells were then placed in an oven at 37° C. for 72 hours. […]
(§7) For these 3 treatments, the inhibitory effect of PS3 and of the reference product (expressed in EC50) on the adsorption of the four abovementioned viral strains after 72 hours was evaluated by measurement of the EC50 values in accordance with the method described in Example 3.

HSV-2R = assay: as above; type: cell-based, herpes simplex virus 2; details: treatment C (present during and after infection), 72 hours
Procedure: as §1, §2, §3, §4, §5, §6, §7

thrombin = assay: Specific antithrombin test using chromogenic substrates; type: biochemical
From the text: (§8) The effect in the case of the thrombin time can be considered as being due to an inhibition of thrombin dependent on heparin cofactor II. On the basis of on the one hand the lower specific activity and on the other hand the profile dependent on the concentration and also on the other hand other investigations relating to the action mechanism, it is possible to consider that in the case of the laminarin sulphate PS3, the risk of bleeding is considerably lower than in the case of heparin.

[1] = test system: rats of the Sprague Dawley breed; assay: Acute dermal toxicity; type: in vivo
Procedure: (§9) This study was carried out on white rabbits of the New Zealand breed and on rats of the Sprague Dawley breed.
The rats were subjected on the one hand to a study for determination of the acute dermal toxicity and on the other hand to a study for determination of the acute oral toxicity.
(§10) observing the OECD Guidelines no. 404 and 405 of 24 Feb. 1987 to the extent that they are studies carried out on white rabbits, and OECD Guidelines no. 401 and 402 (1987) as well as EEC Directive B-I 92/69 (1992) to the extent that they are studies carried out on Sprague Dawley rats.

[2] = test system: white rabbits of the New Zealand breed; assay: Ocular irritation test; type: in vivo
Procedure: as §9
(§11) The white rabbits were subjected on the one hand to the ocular irritation test and on the other hand to the primary skin irritation test.
as §10

factor Xa = assay: Specific anti-factor Xa test using chromogenic substrates; type: biochemical
From the text: as §8

[3] = test system: formation of fibrins induced by thrombin; assay: Thrombin time test; type: biochemical; details: relative to heparin
Procedure: (§12) For this, the anticoagulant activity of the laminarin sulphate PS3 obtained in Example 1 was determined as a function of its concentration in comparison with that of heparin in the conventional coagulation, APTT or “activated partial thromboplastin time” tests, the prothombin time test, the so-called “HEPTEST” test and the thrombin time test. The APTT reflects an interaction with the intrinsic coagulation system, while the prothrombin time reflects an interaction with the extrinsic coagulation; the so-called “HEPTEST” test is the conventional test for measurement of the inhibitory activity of heparin with respect to factor Xa, and the thrombin time corresponds to the last stage of coagulation, that is to say the formation of fibrins induced by thrombin.

[4] = test system: white rabbits of the New Zealand breed; assay: Primary skin irritation test; type: in vivo
Procedure: as §9, §11, §10

HSV-1R = assay: Action on the viral adsorption (treatments A, B, C); type: cell-based, herpes simplex virus 1; details: treatment C (present during and after infection), 72 hours
Procedure: as §1, §2, §3, §4, §5, §6, §7

HSV-1 = assay: as above; type: cell-based, herpes simplex virus 1; details: treatment C (present during and after infection), 72 hours
Procedure: as §1, §2, §3, §4, §5, §6, §7

extrinsic coagulation = assay: Prothrombin time test; type: biochemical
Procedure: as §12

Substance: sulphated laminarin [PS3]
- EC50 (HSV-2): 0.24 µg/mL
- EC50 (HSV-2R): 0.30 µg/mL
- antithrombin activity (thrombin): nor an antithrombin activity
- dermal 50% lethal dose [1]: greater than 2 g/kg of body weight
- Ocular irritation [2]: slightly irritating action
- anti-factor Xa activity dependent on the antithrombin (factor Xa): neither a significant anti-factor Xa activity dependent on the antithrombin
- Concentration needed to prevent coagulation totally, thrombin time [3]: 20 times higher
- Specific activity (IU/mg) in the thrombin time as share of the heparin activity [3]: 60%
- Primary skin irritation [4]: non-irritating action
- EC50 (HSV-1R): 5.54 µg/mL
- EC50 (HSV-1): 3.84 µg/mL
- Anticoagulant effect on the prothrombin time (extrinsic coagulation): no pronounced anticoagulant effect
